Assays:
Type in all cases: in vivo
[1] = system: cotton aphids (aphis gossypii); assay: Insecticidal test for cotton aphid, foliar spray on infested squash cotyledons; conditions: 50 ppm spray, graded after 3 days, versus untreated check
Description: Insecticidal Test for Cotton Aphid (Aphis gossypii)
To prepare spray solutions, 2 mg of each test compound was dissolved into 2 mL of a 90:10 acetone:ethanol solvent. This 2 mL of chemical solution was added to 38 mL of water containing 0.05% Tween 20 surfactant to produce a 50 ppm spray solution.
Squash cotyledons were infested with cotton aphid (all life stages16-20 hours prior to application of spray solution. The solution was sprayed on both sides of each infested squash cotyledon (0.5 mL×2 each side with a sweeping action using a total of 2 mL of spray solution. The plants were allowed to air dry and held for 3 days in a controlled room at 26° C. and 40% RH after which time the test was graded. Grading was by actual count using a dissecting microscope and comparison of test counts to the untreated check. Results are given in Table 1 as percent control based on population reduction versus the untreated.

[2] = system: twospotted spider mite (tetranychus uriticae); assay: Two-spotted spider mite test, ovicide method on cotton leaf discs; conditions: leaf disc dip, 6 days, hatched larvae versus untreated discs
Description: Insecticidal Test for Two-spotted Spider Mite (Tetranychus urticae)
Ten adult female two-spotted spider mites were placed on eight 2.2 cm leaf discs of cotton leaf, allowed to oviposit over 24 hours, and thereafter removed. The leaf discs were immersed in 100 ppm test solutions for 3 seconds, then allowed to dry with sixteen discs left untreated as a negative control. Discs were placed on an agar substrate and held at 24° C. and 90% relative humidity for 6 days.

[3] = system: sweetpotato whitefly (bemisia tabaci); assay: Sweetpotato whitefly test on cotton plants under laboratory conditions; conditions: 800 ppm (table footnote), spray on cotton plants with eggs, 21 days, spent pupal cases versus solution-only plants
Description: Evaluation of Tests Compounds on Sweetpotato Whitefly (Bemisia tabacia) Under Laboratory Conditions
Four mg of each test compound was dissolved by adding 5 ml of a 90:10 acetone:ethanol solvent mixture to the vial containing the sample compound. […]
Five-week-old cotton plants reared in a greenhouse were stripped of all foliage except for the two uppermost true leaves that were greater than 5 cm in diameter. These plants were then placed into a laboratory colony of whiteflies for three days for oviposition by the colony females. All whiteflies were then removed from the test plants with pressurized air. The spray solution was then applied to the test plants with a hand-held syringe fitted with hollow cone nozzle. One mL spray solution was applied to each leaf top and bottom for a total of 4 mL per plant. Four replications of each test compound utilized a total of 16 mL spray solution. Plants were air dried and then placed in a holding chamber (26° C. and 40% RH for 21 days. Compound efficacy was evaluated by counting, under a dissecting microscope, the number of spent pupal cases per leaf. A spent pupal case represents a whitefly egg that has undergone full development to achieve adult status, thus indicating lack of control.
Percent control based on reduction of spent pupal cases of a test compound compared to solution-only (no test compound sprayed plants is reported in Table 1.

Structure (SMILES)	CA: activity at 50 ppm against cotton aphids (rating of % mortality / percent control) [1]	TSSM: activity at 100 ppm against twospotted spider mite (rating of % mortality / percent control) [2]	WF: activity at 800 ppm against sweetpotato whitefly (rating of % mortality / percent control) [3]	mortality at 50 ppm ([1]; Aphis gossypii, foliar, 72 h, read-out: CA: activity at 50 ppm against cotton aphids (rating of % mortality / percent control)) [%]	mortality at 100 ppm ([2]; foliar, 144 h, read-out: TSSM: activity at 100 ppm against twospotted spider mite (rating of % mortality / percent control)) [%]
Cc1cnsc1-c1nc(-c2c(F)cccc2Cl)nn1C [Compound 3]	B (81-90)	A (91-100)	G (Inactive)		
Cn1nc(-c2c(F)cccc2F)nc1-c1snc(C#N)c1Br [Compound 4]	A (91-100)	G (Inactive)	G (Inactive)		
Cn1nc(-c2c(F)cccc2F)nc1-c1snc(-c2ccccc2)c1Br [Compound 7]	B (81-90)	G (Inactive)	E (51-60)		
Cn1nc(-c2c(F)cccc2Cl)nc1-c1snc(-c2ccccc2)c1Br [Compound 8]	B (81-90)	C (71-80)	G (Inactive)		
Cn1nc(-c2c(F)cccc2F)nc1-c1cc(-c2ccc(Cl)cc2)ns1 [Compound 9]	E (51-60)		G (Inactive)		
Cn1nc(-c2c(F)cccc2F)nc1-c1snc(-c2ccc(Cl)cc2)c1Br [Compound 11]	A (91-100)	A (91-100)	G (Inactive)		
Cn1nc(-c2c(F)cccc2Cl)nc1-c1snc(-c2ccc(Cl)cc2)c1Br [Compound 12]	A (91-100)	A (91-100)	G (Inactive)		
Cn1nc(-c2c(F)cccc2F)nc1-c1snc(-c2ccc([N+](=O)[O-])cc2)c1Br [Compound 15]		G (Inactive)	G (Inactive)		
Cn1nc(-c2c(F)cccc2F)nc1-c1snc(-c2cccc(C(F)(F)F)c2)c1Br [Compound 16]	B (81-90)	G (Inactive)			
Cc1cc(-c2nc(-c3c(F)cccc3F)nn2C)on1 [Compound 28]		G (Inactive)	B (81-90)		
Cn1nc(-c2c(F)cccc2F)nc1-c1cc(C(C)(C)C)no1 [Compound 30]	D (61-70)	G (Inactive)			
Cc1ncsc1-c1nc(-c2c(F)cccc2F)nn1C [Compound 37]	B (81-90)	A (91-100)			
Cn1nc(-c2c(F)cccc2F)nc1-c1scnc1Cl [Compound 38]	A (91-100)	A (91-100)	G (Inactive)		
Cc1nc(Cl)sc1-c1nc(-c2c(F)cccc2F)nn1C [Compound 39]	A (91-100)	A (91-100)	G (Inactive)		
Cc1nc(Cl)sc1-c1nc(-c2c(F)cccc2Cl)nn1C [Compound 40]	A (91-100)	A (91-100)			
Cc1nc(Br)sc1-c1nc(-c2c(F)cccc2F)nn1C [Compound 41]	A (91-100)	A (91-100)	G (Inactive)		

Structure (SMILES)	CA: activity at 50 ppm against cotton aphids (rating of % mortality / percent control) [1]	TSSM: activity at 100 ppm against twospotted spider mite (rating of % mortality / percent control) [2]	WF: activity at 800 ppm against sweetpotato whitefly (rating of % mortality / percent control) [3]	mortality at 50 ppm ([1]; Aphis gossypii, foliar, 72 h, read-out: CA: activity at 50 ppm against cotton aphids (rating of % mortality / percent control)) [%]	mortality at 100 ppm ([2]; foliar, 144 h, read-out: TSSM: activity at 100 ppm against twospotted spider mite (rating of % mortality / percent control)) [%]
Cn1nc(-c2c(F)cccc2F)nc1-c1sc(Cl)nc1Cl [Compound 42]	B (81-90)	A (91-100)	G (Inactive)		
Cc1nc(-c2ccc(C(F)(F)F)cc2)sc1-c1nc(-c2c(F)cccc2F)nn1C [Compound 47]	D (61-70)	A (91-100)	G (Inactive)		
Cc1nc(-c2nc(-c3c(F)cccc3F)nn2C)cs1 [Compound 48]	D (61-70)	G (Inactive)			
Cc1nc(-c2nc(-c3c(F)cccc3Cl)nn2C)cs1 [Compound 49]		C (71-80)			
Cn1nc(-c2c(F)cccc2F)nc1-c1csc(-c2cccs2)n1 [Compound 50]	A (91-100)	G (Inactive)	G (Inactive)		
Cc1ncoc1-c1nc(-c2c(F)cccc2F)nn1C [Compound 55, 3-(2,6-Difluorophenyl)-5-(4-methyloxazol-5-yl)-1-methyl[1,2,4]triazole]				0 to 51	0 to 51
CCn1nc(C)cc1-c1nc(-c2c(F)cccc2F)nn1C [Compound 60]	B (81-90)	G (Inactive)			
Cc1cc(-c2nc(-c3c(F)cccc3Cl)nn2C)n(C)n1 [Compound 63]	A (91-100)	G (Inactive)			
CCn1nc(-c2nc(-c3c(F)cccc3Cl)nn2C)cc1C [Compound 74]	A (91-100)				
Cn1cc(Cl)c(-c2nc(-c3c(F)cccc3Cl)nn2C)n1 [Compound 75]		G (Inactive)	B (81-90)		
Cc1nn(C)c(Cl)c1-c1nc(-c2c(F)cccc2Cl)nn1C [Compound 76]	B (81-90)	A (91-100)			
Cn1nc(-c2c(F)cccc2Cl)nc1-c1c(C(F)(F)F)nn(C)c1Cl [Compound 77]		A (91-100)			
CCCc1c(-c2nc(-c3c(F)cccc3F)nn2C)cnn1-c1ccc(Cl)cc1 [Compound 80]		G (Inactive)			
Cc1nc(-c2ccc(Cl)cc2)sc1-c1nc(-c2c(F)cccc2F)nn1C [Compound 90]		A (91-100)			
Cc1nc(C(F)(F)F)sc1-c1nc(-c2c(F)cccc2F)nn1C [Compound 91]	C (71-80)				

Source: patent US6413997B1, “3-(substituted phenyl)-5-(substituted heterocyclyl)-1,2,4-triazole compounds” (priority 1998, dated 2002)
